Data published in PubChem BioAssay (NCI).
Several values for one entry are separate records, joined by “and”; a condition that tells them apart may be missing. Identical values can stand only once.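 These data come from cells grown in 96-well plates and exposed to compound for 48 hours at five concentrations. Here, GI50 denotes the concentration required for 50% inhibition of growth. At the TGI there is no net growth.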

Assays:
Experiment in all cases: NCI anticancer screen, dose series, 48 h
HT29 colon = system: HT29 colon
UACC-62 melanoma = system: UACC-62 melanoma
KM12 colon = system: KM12 colon
NCI-H23 lung = system: NCI-H23 lung
OVCAR-4 ovarian = system: OVCAR-4 ovarian
OVCAR-8 ovarian = system: OVCAR-8 ovarian
786-0 renal = system: 786-0 renal
TK-10 renal = system: TK-10 renal
CCRF-CEM leukemia = system: CCRF-CEM leukemia
SK-MEL-28 melanoma = system: SK-MEL-28 melanoma

Structure (SMILES) | GI50 (HT29 colon) | TGI (HT29 colon) [µM] | GI50 (UACC-62 melanoma) | TGI (UACC-62 melanoma) | GI50 (KM12 colon) | TGI (KM12 colon) [µM] | GI50 (NCI-H23 lung) | TGI (NCI-H23 lung) | GI50 (OVCAR-4 ovarian) | TGI (OVCAR-4 ovarian) [µM] | GI50 (OVCAR-8 ovarian) | TGI (OVCAR-8 ovarian) [µM] | GI50 (786-0 renal) | TGI (786-0 renal) [µM] | GI50 (TK-10 renal) | TGI (TK-10 renal) [µM] | GI50 (CCRF-CEM leukemia) | TGI (CCRF-CEM leukemia) [µM] | GI50 (SK-MEL-28 melanoma) | TGI (SK-MEL-28 melanoma)
COc1ccc(/C(=C(\c2ccccc2)[N+](=O)[O-])c2ccc(OCCN3CCCC3)cc2)cc1 | 0.301 µM | 1.82 | 1.93 µM | 4.24 µM | 2.16 µM | 12.4 | 4.94 µM | 18.6 µM | 4.66 µM | 16.7 | 11.8 µM | 31.7 | 1.64 µM | 3.27 | 5.17 µM | 20.1 | 5.19 µM | 22.9 | 1.77 µM | 3.38 µM
CCOC(=O)C(=O)CC(=O)C(Br)C(Br)c1ccc(Cl)cc1 (centres undefined) |  | 34.7 |  | > 100 µM |  | > 100 |  | 96.1 µM |  | > 100 |  | > 100 |  | 34 |  | > 100 |  | 29.3 |  | 72.3 µM
CC1=C(\C=C/C(C)=C/C=C/C(C)=C/C=C/C=C(C)\C=C\C=C(C)/C=C/C2=C(C)CCCC2(C)C)C(C)(C)CCC1 |  | > 100 |  | > 100 µM |  | > 100 |  | > 100 µM |  | > 100 |  | > 100 |  | > 100 |  | > 100 |  | > 100 |  | > 100 µM
COc1cc(/C=N/NC(=O)c2cnn3c2NC(c2ccccc2)C3)ccc1OCc1ccccc1 (centres undefined) | 0.43 µM | 4.33 | 0.679 µM | 7.14 µM | 0.412 µM | 2.35 | 1.2 µM | 6.12 µM | 1.2 µM | 3.08 | 2.15 µM | 9.54 | 1.16 µM | 4.03 | 1.76 µM | 5.94 | 0.712 µM | > 100 | 1.36 µM | 5.11 µM
CC1=C(C(=S)Nc2ccc(Cl)c(C(=O)OC(C)C)c2)SCCO1 |  | 32.6 |  | 32.6 µM |  | 33.5 |  | 62.2 µM |  | 43.5 |  | 46.5 |  | 30.2 |  | 54.3 |  | 44 |  | 35.4 µM
CN(C)NC(=O)NC12CC3CC(CC(C3)C1)C2 |  | > 100 |  | > 100 µM |  | > 100 |  | > 100 µM |  | > 100 |  | > 100 |  | > 100 |  | > 10 |  | > 100 |  | > 10 µM
N/N=C1/C(=O)N(c2ccc(Cl)cc2)C(=O)C(=O)C1c1nc2ccccc2s1 (centres undefined) |  | > 100 |  | > 100 µM |  | > 100 |  | > 100 µM |  | > 100 |  | > 100 |  | > 100 |  | > 100 |  | > 100 |  | > 100 µM
O=C(NOCCO)c1ccc2cncn2c1Nc1ccc(I)cc1F | 0.00307 µM and < 0.01 µM | > 100 | 0.00255 µM and < 0.01 µM | 0.0343 µM and 0.0433 µM | 0.0268 µM and 0.018 µM | > 100 | 0.0189 µM and 0.0195 µM | > 10 µM and 45.2 µM | > 10 µM and 4.29 µM | > 100 | > 10 µM and 19.4 µM | > 100 | > 10 µM and 27.1 µM | > 100 | 0.00874 µM and < 0.0129 µM | > 100 | > 10 µM and 28.1 µM | > 100 | 0.003 µM and < 0.01 µM | 0.0717 µM and 0.198 µM
COc1cc(C2c3cc4c(cc3[C@@H](Nc3ccc(F)cc3)C3COC(=O)[C@H]23)OCO4)cc(OC)c1O (some centres undefined) |  | 18.2 | 0.941 µM | 7.78 µM |  | 13.5 | 0.386 µM | 7.56 µM |  | 49.2 | 0.886 µM | 15.6 | 0.567 µM | 5.26 |  | 14.8 | 0.201 µM and 0.347 µM | 19.6 |  | 48.3 µM
COc1cc(OC)c(/C=C/S(=O)(=O)Cc2ccc(OC)c(N)n2)c(OC)c1 | < 0.0174 µM | > 54.8 | < 0.01 µM | > 100 µM | < 0.01 µM | > 100 | < 0.0247 µM | > 100 µM | 0.0272 µM | > 100 | < 0.018 µM | > 100 | < 0.01 µM | > 100 | > 100 µM | > 100 | < 0.0157 µM | > 100 |  | > 100 µM
O=C1c2c(c3c4ccccc4n(CC4CO4)c3c3[nH]c4ccccc4c23)C(=O)N1Cc1ccccc1 (centres undefined) |  | > 100 |  | > 100 µM |  | > 100 |  | > 100 µM |  | > 100 |  | > 100 |  | > 100 |  | > 100 |  | > 100 |  | > 100 µM
COC(=O)c1sc(-n2cnc3cc(OC)c(OC)cc32)cc1OCc1ccccc1C(F)(F)F | > 25 µM | > 25 | > 25 µM | > 25 µM | > 25 µM | > 25 | > 25 µM | > 25 µM | > 25 µM | > 25 | 15.3 µM | > 25 | 10.8 µM | > 25 | 11 µM | > 25 | > 25 µM | > 25 | > 25 µM | > 25 µM
O=C(Nc1c[nH]c(=O)[nH]c1=O)Oc1ccccc1 |  | > 100 |  | > 100 µM |  | > 100 |  | > 100 µM |  | > 100 |  | > 100 |  | > 100 |  | > 100 |  | > 100 |  | > 100 µM
CCN(CC)c1ccc(N=Nc2ccc(-c3nc4cccnc4s3)cc2)cc1 |  | > 100 |  | > 100 µM |  | > 100 |  | > 100 µM |  | > 100 |  | > 100 |  | > 100 |  | > 100 |  | > 100 |  | > 100 µM
CSCSCC(CO)NC(=O)/C=C/c1c(C)[nH]c(=O)[nH]c1=O (centres undefined) |  | > 100 |  | > 100 µM |  | > 100 |  | > 100 µM |  | > 100 |  | > 100 |  | > 100 |  | > 100 |  | > 100 |  | > 100 µM
COc1ccc2c(Cl)cc(NC(=S)Nc3ccccc3)nc2c1 |  | 44.4 |  | 46.4 µM |  | 37.9 |  | 73.7 µM |  | > 100 |  | 38.4 |  | 62.7 |  | > 100 |  | 90.9 |  | 97.9 µM
CCCCCCNC(=O)CCN(C(=O)O)S(=O)(=O)c1ccc(NC(=O)c2ccccc2)cc1 |  | > 100 |  | > 77.7 µM |  | > 100 |  | > 100 µM |  | > 100 |  | > 100 |  | > 100 |  | > 100 |  | 52.3 |  | > 100 µM
